Test results: patent US7166688B1, “Chelation compositions” (LidoChem, Inc., priority 2000, dated 2007)

How the values were obtained:
[1] = Iron chelation, clear solution / precipitate test; type: physicochemical; details: for appearance of solution / precipitates: 500 ml water, 10 ml 1.8 M ferric nitrate, pH 10, 10 grams potassium phosphate
Method: A five percent chelated iron solution was prepared by blending 18 ml of water with 100 grams of a (10% Fe) ferric nitrate solution. Once in solution, 82 grams of the compound produced in Example 10 was added.
In 25 ml of water, 20 ml of a 1.8M ferric nitrate was added. Once in solution, 30 ml of the diethanolsuccinamide amino ethanol solution produced in Example 17 was added and the pH of the blend was adjusted to 9.2. Then 1 gram of potassium phosphate was added to the mixture.
Five drops of 1.8 M ferric nitrate were added to one liter of water and mechanically blended. Then 10 grams of potassium phosphate were added to the solution and allowed to form insoluble potassium salts.
In 400 ml of water, 20 ml of a 10% ferric nitrate solution were added, and 20 ml of the product from example 25 were added. With mechanical stirring, 40 grams of monopotassium phosphate was added the mix. The pH of the solution was then adjusted to 2 with HCl. The pH of the solution was then gradually raised with the addition of base to a pH of 10.
In 400 ml of water, 10 ml of 1.8 M ferric nitrate solution were added and 20 ml of the product from example 28 were added. With mechanical stirring, 20 grams of monopotassium phosphate was added to the mix. The pH of the solution was then adjusted to 2 with HCL. The pH of the solution was then gradually raised with the addition of Monoethanolamine to a pH of 10.
To a beaker containing one liter of water, 20 grams of potassium phosphate were added to form a clear solution.
Thirty grams of 1.8 M ferric nitrate were added to 100 ml of water. The pH of the solution was lowered to 4 with phosphorous acid, and then 5 grams of Potassium phosphate were then added to the blend. Later 30 ml of the solution produced in example 29 was added.
One hundred ml of the solution prepared in Example 41 was added to 500 ml of water and blended. 10 ml of 1.8-M ferric nitrate was then added to the mixture. […] The potassium salt of maleic acid was tested as a chelating agent.
In a separate flask 20 grams of maleic anhydride were blended in 500 ml of water. Potassium hydroxide was then added to the blend to raise the pH to 10. Later ten ml of 1.8M ferric nitrate was added to the mix and 10 grams of potassium phosphate was also blended in. […] The contents of the flask were then blended again while MEA was added to the mix.

Corn [2] = assay: Foliar applied IDS chelated minerals, tissue analysis, corn; type: in vivo
Method: (§1) An experimental trial was completed testing the efficacy of the Iminodisuccinates (IDS) of this invention on five different crops. Below is the protocol and tissue analysis for both soil and foliar applied iminodisuccinate chelated mineral salts.
(§2) A stock solution for foliar application was prepared by blending 6000 ml of water with T-DAT 09, (Harcross Chemical Company, USA) a surfactant, added to spray mix at 2 drops per liter. • 1). 5 ml of 9% zinc was added to 1 liter of stock solution. • 2). 5 ml of 5% copper was added to 1 liter of stock solution. • 3). 5 ml of 5% manganese was added to 1 liter of stock solution. • 4). 5 ml of 5% Iron was added to 1 liter of stock solution. • 5). 4 ml of 9% zinc, 1 ml of 5% copper, 1 ml of 5% manganese, and 1 ml of 5% iron was added to 1 liter of stock solution. • 6). Stock solution without further addition.
(§3) All plants were sprayed until wet. Harvested material was placed in an oven for one day and sent to the lab for tissue analysis. Harvesting occurred thirty days after planting and some plants had not grown enough to get complete lab results reported. The harvested corn plants were cut at the whirl to insure only new leaves would be tested. The soybeans were clipped above the cotyledon. The alfalfa and clover were removed from the soil and the roots were removed. The wheat was cut at the tillering node.

Wheat [3] = assay: Foliar applied IDS chelated minerals, tissue analysis, wheat; type: in vivo
Method: as §1, §2, §3

Clover [4] = assay: Foliar applied IDS chelated minerals, tissue analysis, clover; type: in vivo
Method: as §1, §2, §3

Soybean = assay: Foliar applied IDS chelated minerals, tissue analysis, soybeans; type: in vivo
Method: as §1, §2, §3

Clover [5] = assay: Soil applied IDS chelated minerals with 10-34-0, tissue analysis, clover; type: in vivo
Method: as §1
(§4) A). The control pots were watered without any further treatments.
(§5) B). An ammonium polyphosphate stock solution was prepared by adding 50 ml of the 10-34-0 to 4000 ml of water. Treated plants received 100 ml of the stock solution.
(§6) (C). The Zinc stock solution was prepared by blending 10 ml of IDS chelated 9% Zinc to a blend of 50 ml of 10-34-0 with 4000 ml of water. Treated plants received 100 ml of the zinc stock solution.
(§7) (D). The mixture of IDS chelated micronutrients was prepared by adding 4 ml of 9% Zinc, 1 ml of 5% Copper, 1 ml of 5% manganese, and 1 ml of 5% Iron. This mixture was then blended with 4000 ml of water and 50 ml of 10-34-0.
as §3

Wheat [6] = assay: Soil applied IDS chelated minerals with 10-34-0, tissue analysis, wheat; type: in vivo
Method: as §1, §4, §5, §6, §7, §3

Corn [7] = assay: Soil applied IDS chelated minerals with 10-34-0, tissue analysis, corn; type: in vivo
Method: as §1, §4, §5, §6, §7, §3

pepper plants = assay: IDS versus EDTA chelates applied to the soil of pepper plants, tissue analysis; type: in vivo
Method: Below is the protocol and tissue analysis for the soil-applied iminodisuccinate and EDTA chelated mineral salts. Treatments: Control—no fertilizer 15-30-15 (fertilizer) alone 15-30-15 plus Cu IDS […] 15-30-15 plus Mn IDS […] 15-30-15 plus Zn IDS […] The standard fertilizer contained no micronutrients. Fertilizer was Hyponex 15-30-15. Each treatment was replicated 3 times. Soil treatments were applied as 50 ml per of the dilute blend of this invention. The pepper plants were transplanted into 1-gallon containers and grown until a suitable size. Plants were treated with the soil-applied chelate. Tissue samples were taken 30 days after the soil treatment had been applied. […] One gallon of fertilizer was poured over three replications of each set in the trial.

Compound: O=C([O-])/C=C\C(=O)[O-].[K+].[K+] [potassium salt of maleic acid, reference compound]
- appearance of solution / precipitates [1]: a rust colored solid precipitated

Compound: [Mn+2]
- manganese in plant tissue, TREATED (Corn [2]; harvested 30 days after planting, control 99.1): 310 parts per million
- manganese in plant tissue, CHANGE (Corn [2]; treated minus control 99.1): 210.9 parts per million
- manganese in plant tissue, % change (Corn [2]; versus control 99.1): 213%
- manganese in plant tissue, TREATED (Wheat [3]; harvested 30 days after planting, control 72.1): 379 parts per million
- manganese in plant tissue, CHANGE (Wheat [3]; treated minus control 72.1): 306.9 parts per million
- manganese in plant tissue, TREATED (Clover [4]; harvested 30 days after planting, control 168): 510 parts per million
- manganese in plant tissue, CHANGE (Clover [4]; treated minus control 168): 342 parts per million
- manganese in plant tissue, TREATED (Soybean; harvested 30 days after planting, control 230): 544 parts per million
- manganese in plant tissue, CHANGE (Soybean; treated minus control 230): 314 parts per million
- manganese in plant tissue, % change (Soybean; versus control 230): 137%
- manganese in plant tissue, TREATED (Clover [5]; soil applied with 10-34-0, harvested 30 days after planting, control 154): 98.4
- manganese in plant tissue, TREATED (Wheat [6]; soil applied with 10-34-0, harvested 30 days after planting, control 71.8): 76.2
- manganese in plant tissue, CHANGE (Wheat [6]; soil applied, treated minus control 71.8): 4.4
- manganese in plant tissue, % change (Wheat [6]; soil applied, versus control 71.8): 6%
- manganese in plant tissue, TREATED (Corn [7]; soil applied with 10-34-0, harvested 30 days after planting, control 128): 80.1

Compound: O=C([O-])CC(C(=O)[O-])N(CCO)C(CC(=O)[O-])C(=O)[O-].[K+].[K+].[K+].[K+] (stereo not drawn) [Example 41, N,N-disuccinic-amino-ethanol tetra potassium salt]
- appearance of solution / precipitates [1]: orange-red clear solution without precipitates

Compound: NCCO [MEA, monoethanolamine, reference compound]
- redissolution of the precipitate on adding MEA ([1]; MEA added to the potassium maleate / ferric nitrate / potassium phosphate mix at pH 10): The precipitate never went back into solution

Compound: IRON
- iron in plant tissue, TREATED (Corn [2]; harvested 30 days after planting, control 36.9): 494 parts per million
- iron in plant tissue, CHANGE (Corn [2]; treated minus control 36.9): 457.1 parts per million
- iron in plant tissue, % change (Corn [2]; versus control 36.9): 1239%
- iron in plant tissue, TREATED (Wheat [3]; harvested 30 days after planting, control 94.5): 334 parts per million
- iron in plant tissue, CHANGE (Wheat [3]; treated minus control 94.5): 239.5 parts per million
- iron in plant tissue, TREATED (Clover [4]; harvested 30 days after planting, control 130): 731 parts per million
- iron in plant tissue, CHANGE (Clover [4]; treated minus control 130): 601 parts per million
- iron in plant tissue, TREATED (Soybean; harvested 30 days after planting, control 111): 557 parts per million
- iron in plant tissue, CHANGE (Soybean; treated minus control 111): 446 parts per million
- iron in plant tissue, % change (Soybean; versus control 111): 402%
- iron in plant tissue, TREATED (Clover [5]; soil applied with 10-34-0, harvested 30 days after planting, control 143): 224
- iron in plant tissue, CHANGE (Clover [5]; soil applied, treated minus control 143): 81
- iron in plant tissue, % change (Clover [5]; soil applied, versus control 143): 57%
- iron in plant tissue, TREATED (Wheat [6]; soil applied with 10-34-0, harvested 30 days after planting, control 79.3): 90.9
- iron in plant tissue, CHANGE (Wheat [6]; soil applied, treated minus control 79.3): 11.6
- iron in plant tissue, % change (Wheat [6]; soil applied, versus control 79.3): 15%
- iron in plant tissue, TREATED (Corn [7]; soil applied with 10-34-0, harvested 30 days after planting, control 45.4): 82.2
- iron in plant tissue, CHANGE (Corn [7]; soil applied, treated minus control 45.4): 36.8
- iron in plant tissue, % (Corn [7]; soil applied, versus control 45.4): 81%

Compound: EDTA [reference compound]
- copper in tissue, TREATED (pepper plants; soil applied with 15-30-15, tissue 30 days after treatment, control 8.0): 12.9
- TREATED (dry weight) (pepper plants; soil applied, control 4.8): 6.2
- TREATED DRY (pepper plants; soil applied, dry weight, CONTROL DRY 4.8): 6.1
- copper in tissue, TREATED ADJUSTED (pepper plants; soil applied, tissue level times dry weight, control adjusted 38.08): 80.03
- copper in tissue, CHANGE IN (adjusted) (pepper plants; soil applied, treated adjusted minus control adjusted 38.08): 41.95
- CHANGE IN WEIGHT (pepper plants; soil applied, treated dry minus control dry 4.8): 1.36
- copper in tissue, % CHANGE (adjusted) (pepper plants; soil applied, versus control adjusted 38.08): 110%
- % CHANGE (dry weight) (pepper plants; soil applied, versus control dry 4.8): 29%

Compound: COPPER
- copper in plant tissue, TREATED (Corn [2]; harvested 30 days after planting, control 5.2): 300 parts per million
- copper in plant tissue, CHANGE (Corn [2]; treated minus control 5.2): 294.8 parts per million
- copper in plant tissue, % change (Corn [2]; versus control 5.2): 5669%
- copper in plant tissue, TREATED (Wheat [3]; harvested 30 days after planting, control 10.8): 157 parts per million
- copper in plant tissue, CHANGE (Wheat [3]; treated minus control 10.8): 146.2 parts per million
- copper in plant tissue, TREATED (Clover [4]; harvested 30 days after planting, control 9.64): 227 parts per million
- copper in plant tissue, CHANGE (Clover [4]; treated minus control 9.64): 217.36 parts per million
- copper in plant tissue, TREATED (Soybean; harvested 30 days after planting, control 4.74): 937 parts per million
- copper in plant tissue, CHANGE (Soybean; treated minus control 4.74): 932.26 parts per million
- copper in plant tissue, TREATED (Clover [5]; soil applied with 10-34-0, harvested 30 days after planting, control 8.91): 20.2
- copper in plant tissue, CHANGE (Clover [5]; soil applied, treated minus control 8.91): 11.29
- copper in plant tissue, % change (Clover [5]; soil applied, versus control 8.91): 127%
- copper in plant tissue, TREATED (Wheat [6]; soil applied with 10-34-0, harvested 30 days after planting, control 6.79): 12.1
- copper in plant tissue, CHANGE (Wheat [6]; soil applied, treated minus control 6.79): 5.31
- copper in plant tissue, % change (Wheat [6]; soil applied, versus control 6.79): 78%
- copper in plant tissue, TREATED (Corn [7]; soil applied with 10-34-0, harvested 30 days after planting, control 5.43): 11.7
- copper in plant tissue, CHANGE (Corn [7]; soil applied, treated minus control 5.43): 6.27
- copper in plant tissue, % (Corn [7]; soil applied, versus control 5.43): 115%
